Measured values as given in patent US11299472B2, “Fumarate salt of (R)-3-(1-(2,3-dichloro-4-(pyrazin-2-yl)phenyl)-2,2,2- trifluoroethyl)-1-methyl-1-(1-methylpiperidin-4-yl) urea, methods of preparation, and uses thereof” (Helsinn Healthcare SA, priority 2017, dated 2022).
Read-outs that look alike come from different tables or passages of the source.

How the values were obtained:
[1] = Dog pharmacokinetic study, single oral HM04 fumarate salt 3, 10, 30 mg/kg (Example 10); assay type: in vivo, male Beagle dogs; details: for concentration at 0.5 h: 0.50 hours
Protocol: The pharmacokinetics of HM04 in plasma after single oral administration of HM04 fumarate salt to 6-week old male Sprague Dawley rats and male Beagle dogs (1-5 years of age) was investigated. Test formulations of 0.6 mg/mL, 2 mg/mL, and 6 mg/mL HM04 fumarate salt (based on weight of the free base) were prepared in 5% glucose solution. Doses of 3, 10, and 30 mg/kg HM04 fumarate salt (based on weight of the free base) were administered by gastric gavage as a 5 mL/kg dose volume of each of the three test formulations. Four animals were in each dose group. The formulation was administered to the dogs in fasting conditions with food provided three hours post-dosing.
Oral absolute bioavailability at 3 mg/kg was calculated from the ratio of individual oral AUC∞ to the individual AUC∞ values determined following intravenous administration of 3 mg/kg HM04 fumarate salt (based on weight of the free base) to the same four male Beagle dogs.
Oral absolute bioavailability at 10 mg/kg was calculated from the ratio of individual oral AUC∞ to the individual AUC∞ values determined following intravenous administration of 10 mg/kg HM04 fumarate salt (based on weight of the free base) to the same four male Beagle dogs.
Plasma HM04 concentrations were measured by LC-MS/MS following protein precipitation in the 96-well plate format. At the time of analysis samples were thawed out at ambient temperature. Aliquots of 25 μL of rat or dog K3EDTA plasma were spiked with 300 μL of internal standard (25 ng/mL of HM04-d8 in acetonitrile). After gentle vortex mixing for 5 minutes and centrifugation at 2010 g for 15 minutes at 4° C., an aliquot of 100 μL of the organic phase was transferred into a fresh 96-well polypropylene plate, using a P3-Evolution robotic system (Perkin Elmer). Following dilution with 100 μL of […] ammonium formate pH 3.5, an aliquot of 10 μL was injected into the LC-MS/MS system.

[2] = Dog pharmacokinetic study, HM04 free base vs HM04 fumarate salt (Example 9); assay type: in vivo, male Beagle dogs
Protocol: The pharmacokinetics of HM04 in plasma of male Beagle dogs dosed with a single oral administration of 2 mg/kg HM04 formulated in a solution of 10% DMAC, 6% Solutol, and 84% PBS using either the HM04 free base or HM04 fumarate salt were compared. A comparison of the plasma concentration of HM04 (ng/mL) over time in dogs dosed orally with HM04 free base and HM04 fumarate salt is provided in FIG. 18. Bioavailability was calculated from a dose normalized ratio of the oral mean AUC to the intravenous mean AUC (AUCpo/AUCiv×Doseiv/Dosepo).

[3] = male, Beagle, plasma, 3 mg/kg oral, n=4
[4] = male, Beagle, plasma, 10 mg/kg oral, n=4
[5] = male, Beagle, plasma, 30 mg/kg oral, n=4
[6] = oral dose range of 3 to 30 mg/kg
[7] = male, Beagle, plasma, 2 mg/kg oral, mean ± S.D., n=3

CN1CCC(N(C)C(=O)N[C@H](c2ccc(-c3cnccn3)c(Cl)c2Cl)C(F)(F)F)CC1.O=C(O)/C=C/C(=O)O [HM04 fumarate salt, (R)-3-(1-(2,3-dichloro-4-(pyrazin-2-yl)phenyl)-2,2,2-trifluoroethyl)-1-methyl-1-(1-methylpiperidin-4-yl)urea fumarate salt]
concentration at 24 h [1, 3]: 8.83 ± 14.7 ng/mL
AUC(0-t) [1, 3]: 2160 ± 1720 ng·h/mL
Cmax [1, 3]: 425 ± 222 ng/mL
Tmax [1, 3]: 0.875 ± 0.25 h
half-life ([1]; male, Beagle, plasma, 3 mg/kg oral, n=4, read-out: t1/2 (converted)): 4.02 ± 1.21 h
bioavailability ([1]; male, Beagle, plasma, 10 mg/kg oral vs 10 mg/kg intravenous, individual AUC∞ ratios): 68 ± 10%
concentration at 0 h ([1]; male, Beagle, plasma, 10 mg/kg oral, 0 hours (pre-dose), n=4): 2.15 ± 4.3 ng/mL
concentration at 0.25 h [1, 4]: 307 ± 246 ng/mL
concentration at 0.5 h [1, 4]: 862 ± 460 ng/mL
concentration at 1 h [1, 4]: 1510 ± 435 ng/mL
concentration at 2 h [1, 4]: 1170 ± 260 ng/mL
concentration at 4 h [1, 4]: 789 ± 150 ng/mL
concentration at 8 h [1, 4]: 468 ± 171 ng/mL
concentration at 24 h [1, 4]: 65.1 ± 65.2 ng/mL
AUC(0-t) [1, 4]: 10900 ± 3500 ng·h/mL
Cmax [1, 4]: 1510 ± 435 ng/mL
Tmax [1, 4]: 1 h
half-life ([1]; male, Beagle, plasma, 10 mg/kg oral, n=4, read-out: t1/2 (converted)): 4.93 ± 1.31 h
concentration at 0.25 h [1, 5]: 1940 ± 1330 ng/mL
concentration at 0.5 h [1, 5]: 3730 ± 1560 ng/mL
concentration at 1 h [1, 5]: 5720 ± 1200 ng/mL
concentration at 2 h [1, 5]: 5030 ± 710 ng/mL
concentration at 4 h [1, 5]: 3780 ± 577 ng/mL
concentration at 8 h [1, 5]: 2440 ± 176 ng/mL
concentration at 24 h [1, 5]: 560 ± 147 ng/mL
AUC(0-t) [1, 5]: 54000 ± 6010 ng·h/mL
Cmax [1, 5]: 5720 ± 1200 ng/mL
Tmax [1, 5]: 1 h
half-life ([1]; male, Beagle, plasma, 30 mg/kg oral, n=4, read-out: t1/2 (converted)): 6.97 ± 0.613 h
half-life ([1]; male, Beagle, plasma, intravenous, range, read-out: half-life after intravenous administration): 4 to 5 h
AUC(0-inf) ([1]; male, Beagle, plasma, iv, 3 mg/kg, Dog 1, 3 mg/kg intravenous, read-out: individual IV AUC∞): 6190 ng·h/mL
AUC(0-inf) ([1]; male, Beagle, plasma, iv, 3 mg/kg, Dog 2, 3 mg/kg intravenous, read-out: individual IV AUC∞): 3100 ng·h/mL
AUC(0-inf) ([1]; male, Beagle, plasma, iv, 3 mg/kg, Dog 3, 3 mg/kg intravenous, read-out: individual IV AUC∞): 3210 ng·h/mL
AUC(0-inf) ([1]; male, Beagle, plasma, iv, 3 mg/kg, Dog 4, 3 mg/kg intravenous, read-out: individual IV AUC∞): 3070 ng·h/mL
AUC(0-inf) ([1]; male, Beagle, plasma, iv, 10 mg/kg, Dog 1, 10 mg/kg intravenous, read-out: individual IV AUC∞): 22500 ng·h/mL
AUC(0-inf) ([1]; male, Beagle, plasma, iv, 10 mg/kg, Dog 2, 10 mg/kg intravenous, read-out: individual IV AUC∞): 13200 ng·h/mL
AUC(0-inf) ([1]; male, Beagle, plasma, iv, 10 mg/kg, Dog 3, 10 mg/kg intravenous, read-out: individual IV AUC∞): 15500 ng·h/mL
AUC(0-inf) ([1]; male, Beagle, plasma, iv, 10 mg/kg, Dog 4, 10 mg/kg intravenous, read-out: individual IV AUC∞): 14900 ng·h/mL
half-life ([1]; male, Beagle, plasma, oral 3 to 30 mg/kg, range, read-out: apparent terminal half-life): 4 to 7 h
AUC(0-inf) ([1]; male, Beagle, plasma, po, 3 mg/kg, Dog 1, 3 mg/kg oral, read-out: individual oral AUC∞): 4930 ng·h/mL
AUC(0-inf) ([1]; male, Beagle, plasma, po, 3 mg/kg, Dog 2, 3 mg/kg oral, read-out: individual oral AUC∞): 1440 ng·h/mL
AUC(0-inf) ([1]; male, Beagle, plasma, po, 3 mg/kg, Dog 3, 3 mg/kg oral, read-out: individual oral AUC∞): 1160 ng·h/mL
AUC(0-inf) ([1]; male, Beagle, plasma, po, 3 mg/kg, Dog 4, 3 mg/kg oral, read-out: individual oral AUC∞): 1850 ng·h/mL
AUC(0-inf) ([1]; male, Beagle, plasma, po, 10 mg/kg, Dog 1, 10 mg/kg oral, read-out: individual oral AUC∞): 17500 ng·h/mL
AUC(0-inf) ([1]; male, Beagle, plasma, po, 10 mg/kg, Dog 2, 10 mg/kg oral, read-out: individual oral AUC∞): 8780 ng·h/mL
AUC(0-inf) ([1]; male, Beagle, plasma, po, 10 mg/kg, Dog 3, 10 mg/kg oral, read-out: individual oral AUC∞): 8470 ng·h/mL
AUC(0-inf) ([1]; male, Beagle, plasma, po, 10 mg/kg, Dog 4, 10 mg/kg oral, read-out: individual oral AUC∞): 10900 ng·h/mL
AUC versus dose [1, 6]: increased more than in direct proportion with the dose
Cmax versus dose [1, 6]: increased roughly proportionally with the dose
time to maximal concentrations of HM04 ([1]; single oral administrations, post-dosing): ≤ 1 h
HM04 plasma concentration ([2]; 2 mg/kg oral, 0.25 hours, mean ± S.D., n=3): 86.6 ± 32.2 ng/mL
HM04 plasma concentration ([2]; 2 mg/kg oral, 0.50 hours, mean ± S.D., n=3): 182.4 ± 24.1 ng/mL
HM04 plasma concentration ([2]; 2 mg/kg oral, 2 hours, mean ± S.D., n=3): 219.0 ± 63.6 ng/mL
bioavailability ([2]; male, Beagle, plasma, 2 mg/kg oral vs 1 mg/kg intravenous, dose normalized AUC ratio): 82.3 ± 36.8%
AUC(0-t) [2, 7]: 1850 ± 828 ng·h/mL
Cmax [2, 7]: 230 ± 57.1 ng/mL
Tmax [2, 7]: 1.33 ± 0.58 h
